The source of these data is patent publication EP4818168A1, “FUSED RING COMPOUND, PHARMACEUTICAL COMPOSITION THEREOF AND USE THEREOF” (priority 2023, dated 2025).

The structures appear in SMILES notation. Read-outs that look alike come from different tables or passages of the source.

The nature of data set [1]: Mouse PK study. The data set is classed as in vivo. Particulars: male CD1 mice; for C0/Cmax / half-life / AUC(0-t) at 24 h / clearance / Vd / Tmax: plasma; for half-life / AUC(0-t) at 24 h / clearance / Vd / Tmax: mouse; for AUC(0-t) at 24 h: read-out: AUC0-24; for clearance: read-out: CLp; for Vd: read-out: Vss. As for the experimental part: Male CD1 mice (5-8 weeks old) were administered intravenously (IV) at a dose of 1 mg/kg by tail vein bolus or orally (PO) at doses of 10 mg/kg and 40 mg/kg by gavage. The compound was formulated in a vehicle of 10% DMSO + 10% Solutol HS15 + 80% saline. All animals were given free access to food and water during the experiment. […] Blood samples were centrifuged at 3500 g for 5 min, and the resulting plasma was analyzed by an LC-MS/MS method. The PK parameters were calculated using WinNonlin software (Phoenix®, version 8.3) through non-compartmental analysis methods.

For data set [2], the system named is H82 cells. Kind of data set: cells. It counts as cell-based. As to conditions: Homo sapiens. Summed up:
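After 6 days' compound treatment at 37 °C (final DMSO 0.1%, RPMI1640/10% FBS), viable H82 cells were quantified by ATP-dependent CellTiter-Glo luminescence. Remaining activity was calculated against DMSO and medium wells, and a sigmoidal fit gave IC50.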

The target in data set [3] is T1, AURKA (Homo sapiens, UniProt O14965).
T1 construct: endogenous in cells; host or cells: Jurkat cells
T1 sequence (O14965 1-403): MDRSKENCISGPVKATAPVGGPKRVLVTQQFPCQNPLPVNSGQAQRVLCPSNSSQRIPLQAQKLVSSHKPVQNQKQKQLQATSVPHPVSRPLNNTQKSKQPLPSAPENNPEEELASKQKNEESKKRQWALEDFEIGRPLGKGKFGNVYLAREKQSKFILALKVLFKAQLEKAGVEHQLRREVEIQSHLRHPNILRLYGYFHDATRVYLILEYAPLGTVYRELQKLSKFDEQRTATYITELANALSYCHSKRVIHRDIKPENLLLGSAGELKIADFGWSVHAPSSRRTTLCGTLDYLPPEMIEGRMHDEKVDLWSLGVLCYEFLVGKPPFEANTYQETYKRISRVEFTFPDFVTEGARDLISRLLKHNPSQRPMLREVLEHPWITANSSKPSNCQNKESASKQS
The data set is classed as cell-based. As to conditions: Jurkat cells, 24 h. An outline of the steps: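 AURKA degradation read by western blot: band signal, fluorescent or chemiluminescent, curve-fitted to derive DC50. Cells were Jurkat, plated at 1×10^6 cells/500 µL with compound, then lysed and blotted onto nitrocellulose, primary antibody overnight at 4°C.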

For data set [4], the system named is HCC1806 cells. Briefly: CTG assay of compound inhibition on cell viability (HCC1806 cells). The data set is classed as cell-based. Particulars: Homo sapiens, read-out: IC50 in HCC1806 Cells. An outline of the steps: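 HCC1806 cells in RPMI1640 + 10% FBS were exposed to serially diluted compound (0.1% DMSO final) for 6 days at 37°C, 5% CO2. Viability was read as CellTiter-Glo luminescence (ATP) and normalised to DMSO and medium controls. IC50 came from a nonlinear-regression dose-survival curve.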

Where [5] appears, read: 144 h, HCC1806 cells, 6 days, CellTiter-Glo.

As a reminder, the half-life is the time in which the quantity being followed falls by half. Read a low half-life as rapid decline. By Tmax is commonly meant the time from dosing to the highest level. The IC50 is the concentration that inhibits the measured activity by half. On to `O=C1CCN(c2ccc(N3CCC4(CC3)CC(N3CCN(C56CC(Nc7ncc8c(n7)-c7ccc(Cl)cc7C(c7c(F)cccc7F)=NC8)(C5)C6)C(=O)C3)CO4)nc2)C(=O)N1` (stereo not drawn) [Compound A321], for which, in data set [1] (IV 1 mg/kg), the C0/Cmax came to 1307 ng/mL, the half-life was 1.89 h, the AUC(0-t) at 24 h came out at 2630 ng·h/mL and the clearance amounted to 6.16 mL/min/kg. Further, the Vd in data set [1] (IV 1 mg/kg) is 0.97 L/kg. Moreover, in data set [1] (PO 10 mg/kg), the F is 157%, the C0/Cmax was 4007 ng/mL, the Tmax was 3.33 h and the half-life was 2.13 h. Besides, the AUC(0-t) at 24 h in data set [1] (PO 10 mg/kg) is 41400 ng·h/mL. Also, in data set [1] (PO 40 mg/kg), the F was found to be 130%, the C0/Cmax stood at 13233 ng/mL, the Tmax was 3.33 h and the half-life was 1.97 h. Further, the AUC(0-t) at 24 h in data set [1] (PO 40 mg/kg) came out at 137000 ng·h/mL. The IC50 in data set [2] (NCI-H82, read-out: IC50 in H82 Cells) was less than 1000 nM. In data set [3] (Table 2), the “Percentage of AURKA Degradation Induced by 100 nM Compound in Jurkat Cells” value (“Percentage … by 100 nM Compound in Jurkat Cells” for short) was “+++ (Degradation > 70%)” and the “Percentage of AURKA Degradation Induced by 1 µM Compound in Jurkat Cells” value (from here on “Percentage … by 1 µM Compound in Jurkat Cells”) is recorded as “+++ (Degradation > 70%)”.
Take `O=C1CCN(c2ccc(N3CCO[C@H](C(=O)N4CCN(c5ccc(Nc6ncc7c(n6)-c6ccc(Cl)cc6C(c6c(F)cccc6F)=NC7)cc5)CC4)C3)nc2)C(=O)N1` [Compound A307]: in data set [1] (IV 1 mg/kg), the C0/Cmax turned out to be 1527 ng/mL, the half-life was 2.28 h, the AUC(0-t) at 24 h was found to be 2450 ng·h/mL and the clearance stood at 6.33 mL/min/kg. Further, the Vd in data set [1] (IV 1 mg/kg) worked out at 1.04 L/kg. Besides, in data set [1] (PO 10 mg/kg), the F was found to be 79.7%, the C0/Cmax is listed as 2460 ng/mL, the Tmax amounted to 2 h and the half-life is 2.41 h. The AUC(0-t) at 24 h in data set [1] (PO 10 mg/kg) stood at 19500 ng·h/mL. For the same compound, in data set [1] (PO 40 mg/kg), the F was 80.6%, the C0/Cmax is 7283 ng/mL, the Tmax was determined as 3.33 h and the half-life is 2.37 h. Besides, the AUC(0-t) at 24 h in data set [1] (PO 40 mg/kg) was 78900 ng·h/mL. Also, the IC50 in data set [2] (NCI-H82, H82 cells, 4000 cells/well, CellTiter-Glo, read-out: IC50 in H82 Cells) was less than 1000 nM. In data set [3] (Table 2), the “Percentage … by 100 nM Compound in Jurkat Cells” value is listed as “+++ (Degradation > 70%)” and the “Percentage … by 1 µM Compound in Jurkat Cells” value is given as “+++ (Degradation > 70%)”.
For `COc1cc(Nc2ncc3c(n2)-c2ccc(Cl)cc2C(c2c(F)cccc2OC)=NC3)ccc1C(=O)NC1CCC2(CC1)CN(c1ccc(N3CCC(=O)NC3=O)cc1)C2` [Compound A57], in data set [4] (HCC1806, 144 h), the IC50 was less than 1000 nM. In data set [3] (Table 1), the “Percentage … by 100 nM Compound in Jurkat Cells” value was “+++ (Degradation > 70%)” and the “Percentage … by 1 µM Compound in Jurkat Cells” value was “+++ (Degradation > 70%)”.
Regarding `CN(CCN1CCN(c2ccc(N3CCC(=O)NC3=O)cc2)CC1)C(=O)c1ccc(Nc2ncc3c(n2)-c2ccc(Cl)cc2C(c2c(F)cccc2F)=NC3)cc1` [Compound A11], in data set [4] (HCC1806, 144 h), the IC50 is less than 1000 nM. In addition, in data set [3] (Table 1), the “Percentage … by 100 nM Compound in Jurkat Cells” value is “+++ (Degradation > 70%)” and the “Percentage … by 1 µM Compound in Jurkat Cells” value is “++ (30% < Degradation ≤ 70%)”.
For the compound `COc1cc(Nc2ncc3c(n2)-c2ccc(Cl)cc2C(c2c(F)cccc2OC)=NC3)ccc1C(=O)NCCN1CCC(n2cnc(N3CCC(=O)NC3=O)c2)CC1` [Compound A23], the IC50 in data set [4] (HCC1806, 144 h) was less than 1000 nM. Moreover, in data set [3] (Table 1), the “Percentage … by 100 nM Compound in Jurkat Cells” value is reported as “+ (Degradation ≤ 30%)” and the “Percentage … by 1 µM Compound in Jurkat Cells” value is “+ (Degradation ≤ 30%)”.
Take `COc1cc(Nc2ncc3c(n2)-c2ccc(Cl)cc2C(c2c(F)cccc2OC)=NC3)ccc1C(=O)NCCN1CCN(c2ccc(N3CCC(=O)NC3=O)cc2)CC1` [Compound A8]: the IC50 in data set [4] (setting [5]) is less than 1000 nM. Further, in data set [3] (Table 1), the “Percentage … by 100 nM Compound in Jurkat Cells” value was “+++ (Degradation > 70%)” and the “Percentage … by 1 µM Compound in Jurkat Cells” value is listed as “+++ (Degradation > 70%)”.
Turning to `O=C1CCN(c2cnc(N3CCC4(CC3)CC(NC(=O)c3ccc(Nc5ncc6c(n5)-c5ccc(Cl)cc5C(c5c(F)cccc5F)=NC6)cc3)C4)s2)C(=O)N1` [Compound A81], in data set [4] (HCC1806, 144 h), the IC50 was less than 1000 nM. Moreover, in data set [3] (Table 1), the “Percentage … by 100 nM Compound in Jurkat Cells” value is reported as “+++ (Degradation > 70%)” and the “Percentage … by 1 µM Compound in Jurkat Cells” value is “+++ (Degradation > 70%)”.
Regarding `COc1cc(Nc2ncc3c(n2)-c2ccc(Cl)cc2C(c2c(F)cccc2OC)=NC3)ccc1C(=O)NC1CN(CCOc2cccc3c2C(=O)N(C2CCC(=O)NC2=O)C3=O)C1` (stereo not drawn) [Compound A5], the concentration for half-maximal inhibition (IC50) in data set [4] (setting [5]) is less than 1000 nM. Besides, in data set [3] (Table 1), the “Percentage … by 100 nM Compound in Jurkat Cells” value is on record as “++ (30% < Degradation ≤ 70%)” and the “Percentage … by 1 µM Compound in Jurkat Cells” value was “++ (30% < Degradation ≤ 70%)”.
